# Assay results: patent publication US20100331357A1, “PHARMACEUTICAL COMPOSITION” (TAKEDA PHARMACEUTICAL COMPANY LIMITED, priority 2008, published 2010)
# What was measured:
# Format in all cases: physicochemical
# [1] = Saturation solubility, shaken 18 hours at 25° C., filtered, HPLC; settings: thermodynamic from solid, 40 mM Citric acid
# Procedure: To each of the various solutions shown in Table 5, compound A1 hydrochloride was added in an amount exceeding the saturation concentration, and the mixture was shaken for 18 hours at 25° C.
# [2] = Saturation solubility, shaken 18 hours at 5° C., filtered, HPLC; settings: thermodynamic from solid, 40 mM Citric acid, NaOH, as free form
# Procedure: To each of the various solutions shown in Table 6, compound A1 hydrochloride was added in an amount exceeding the saturation concentration, and the mixture was shaken for 18 hours at 5° C.
# [3] = Solubility by eye observation with stepwise addition of solution; settings: thermodynamic from solid
# Procedure: (§1) Each of the solutions (0.1 mL) shown in Table 1 was added to compound A1 hydrochloride (about 2 mg), and solubility was confirmed with eye observation. When insoluble materials were recognized, the solution (0.1 mL) was further added, and solubility was confirmed by eye observation in the same manner. When insoluble materials were still recognized, the solution was thereafter added in the amounts of 0.05 mL, 0.15 mL, 0.4 mL, 0.4 mL, 0.4 mL and 0.4 mL, respectively in this order, and solubility was confirmed by eye observation. The concentration of the compound A1 hydrochloride determined from the total amount of the solution added up to the time point at which insoluble materials were not recognized, was taken as the solubility.
# as §1, with “Table 2” for “Table 1”
# as §1, with “Table 3” for “Table 1”
# as §1, with “Table 4” for “Table 1”
structure (smiles),measurement,setting,value
"CCS(=O)(=O)c1cccc(-c2cc(C(=O)NC3CCN(C)CC3)c(C)c3[nH]c4ncc(C)cc4c23)c1.Cl [compound A1 hydrochloride, 5-(3-(ethylsulfonyl)phenyl)-3,8-dimethyl-N-(1-methylpiperidin-4-yl)-9H-pyrido[2,3-b]indole-7-carboxamide hydrochloride]",solubility at 18 h,"[1]; aqueous with cosolvent or surfactant or cyclodextrin, 5 w/v % Sulfobutyl ether-β-cyclodextrin sodium salt (Captisol, research grade), HCl, pH 2.5, as free form",29.2 mg/mL
same,solubility at 18 h,"[1]; aqueous with cosolvent or surfactant or cyclodextrin, 5 w/v % Sulfobutyl ether-β-cyclodextrin sodium salt (Captisol, research grade), NaOH, pH 4, as free form",24.5 mg/mL
same,solubility at 18 h,"[1]; aqueous with cosolvent or surfactant or cyclodextrin, 5 w/v % Sulfobutyl ether-β-cyclodextrin sodium salt (Captisol, research grade), NaOH, pH 5, as free form",22.9 mg/mL
same,solubility at 18 h,"[1]; citric acid solution in water for injection, aqueous buffer, water for injection, HCl, pH 2.5, as compound A1 (free form)",8 mg/mL
same,solubility at 18 h,"[1]; citric acid solution in water for injection, aqueous buffer, water for injection, NaOH, pH 4, as free form",0.3 mg/mL
same,solubility at 18 h,"[1]; citric acid solution in water for injection, aqueous buffer, water for injection, NaOH, pH 5, as free form",0.1 mg/mL
same,solubility at 18 h,"[2]; citric acid solution in water for injection, pH 4, aqueous buffer, water for injection",0.1 mg/mL
same,solubility at 18 h,"[2]; pH 4, aqueous with cosolvent or surfactant or cyclodextrin, 2.5 w/v % Sulfobutyl ether-β-cyclodextrin sodium salt",13 mg/mL
same,solubility at 18 h,"[2]; pH 4, aqueous with cosolvent or surfactant or cyclodextrin, 5 w/v % Sulfobutyl ether-β-cyclodextrin sodium salt",20.9 mg/mL
same,solubility at 18 h,"[2]; pH 4, aqueous with cosolvent or surfactant or cyclodextrin, 7.5 w/v % Sulfobutyl ether-β-cyclodextrin sodium salt",27.6 mg/mL
same,solubility at 18 h,"[2]; pH 4, aqueous with cosolvent or surfactant or cyclodextrin, 10 w/v % Sulfobutyl ether-β-cyclodextrin sodium salt",32.8 mg/mL
same,solubility at 18 h,"[2]; pH 4, aqueous with cosolvent or surfactant or cyclodextrin, 12 w/v % Sulfobutyl ether-β-cyclodextrin sodium salt",35.4 mg/mL
same,solubility at 18 h,"[2]; pH 4, aqueous with cosolvent or surfactant or cyclodextrin, 20 w/v % Sulfobutyl ether-β-cyclodextrin sodium salt",43.6 mg/mL
same,solubility at 18 h,"[2]; pH 4, aqueous with cosolvent or surfactant or cyclodextrin, 30 w/v % Sulfobutyl ether-β-cyclodextrin sodium salt",49.9 mg/mL
same,solubility,"[3]; 5 w/v % D-mannitol in water for injection, saline or isotonic",~1.1 mg/mL
same,solubility,"[3]; 5 w/v % D-sorbitol in water for injection, saline or isotonic",~1.3 mg/mL
same,solubility,"[3]; 5 w/v % glucose in water for injection, saline or isotonic",~1.3 mg/mL
same,solubility,"[3]; 10 w/v % Dextran 40 in water for injection, aqueous with cosolvent or surfactant or cyclodextrin",< 1.3 mg/mL
same,solubility,"[3]; 10 w/v % Polysorbate 20 in water for injection, aqueous with cosolvent or surfactant or cyclodextrin",~1.8 mg/mL
same,solubility,"[3]; 10 w/v % Polysorbate 80 in water for injection, aqueous with cosolvent or surfactant or cyclodextrin",~2.2 mg/mL
same,solubility,"[3]; 10 w/v % maltose in water for injection, saline or isotonic",~1.4 mg/mL
same,solubility,"[3]; 10 w/v % sucrose in water for injection, saline or isotonic",~1.2 mg/mL
same,solubility,"[3]; 30 w/v % maltosyl-β-cyclodextrin in water for injection, aqueous with cosolvent or surfactant or cyclodextrin",~10.8 mg/mL
same,solubility,"[3]; aqueous with cosolvent or surfactant or cyclodextrin, 30 w/v % 2-Hydroxypropyl-β-cyclodextrin in water for injection",~10.4 mg/mL
same,solubility,"[3]; aqueous with cosolvent or surfactant or cyclodextrin, 30 w/v % Sulfobutyl ether-β-cyclodextrin sodium salt (Captisol, clinical grade) in water for injection",~9.2 mg/mL
same,solubility,"[3]; citric acid buffer solution, pH 2, aqueous buffer, 100 mM Citric acid buffer solution pH 2",~2.1 mg/mL
same,solubility,"[3]; citric acid buffer solution, pH 3, aqueous buffer, 100 mM Citric acid buffer solution pH 3",~1 mg/mL
same,solubility,"[3]; citric acid buffer solution, pH 4, aqueous buffer, 100 mM Citric acid buffer solution pH 4",< 1.3 mg/mL
same,solubility,"[3]; citric acid buffer solution, pH 5, aqueous buffer, 100 mM Citric acid buffer solution pH 5",< 1.3 mg/mL
same,solubility,"[3]; citric acid buffer solution, pH 7, aqueous buffer, 100 mM Citric acid buffer solution pH 7",< 1.2 mg/mL
same,solubility,"[3]; citric acid buffer solution, pH 9, aqueous buffer, 100 mM Citric acid buffer solution pH 9",< 1.2 mg/mL
same,solubility,"[3]; citric acid buffer solutions, aqueous buffer, citric acid buffer solutions of Table 1",< 8 mg/mL
same,solubility,"[3]; cyclodextrin derivative solutions, aqueous with cosolvent or surfactant or cyclodextrin, all cyclodextrin derivative solutions shown in Table 4",≥ 8 mg/mL
same,solubility,"[3]; ethanol, organic solvent or mixture, 100 w/v % Ethanol",< 1.2 mg/mL
same,solubility,"[3]; polyethylene glycol 300, organic solvent or mixture, 100 w/v % Polyethylene glycol 300",< 1.1 mg/mL
same,solubility,"[3]; polyethylene glycol 400, organic solvent or mixture, 100 w/v % Polyethylene glycol 400",< 1.3 mg/mL
same,solubility,"[3]; solutions of solubilizers, aqueous with cosolvent or surfactant or cyclodextrin, solutions of solubilizers in Table 3",< 8 mg/mL
same,solubility,"[3]; solutions of sugars, saline or isotonic, solutions of sugars in Table 2",< 8 mg/mL
same,solubility,"[3]; soybean oil, oil or lipid, 100 w/v % Soybean oil",< 1.2 mg/mL
same,solubility,"[3]; water for injection, water",< 1.2 mg/mL
